The values below come from ChEMBL document CHEMBL3576767, “Neo-clerodane diterpenoids from Scutellaria barbata with activity against Epstein-Barr virus lytic replication” (J Nat Prod, 2015).

For data set [1], the system named is Human gammaherpesvirus 4. The data set is described as follows: Antiviral activity against EBV infected in TPA and sodium butyrate-induced P3HR1 cells assessed as inhibition on EBV lytic replication at 20 uM incubated for 48 hrs by SYBR green dye based real-time PCR method. The conditions noted are these: human gammaherpesvirus 4, P3HR-1, 48 h. The data set is classed as functional. (Real-time PCR tracks product formation cycle by cycle.)

For data set [2], the system named is Human gammaherpesvirus 4. The data set is described as follows: Antiviral activity against EBV infected in TPA and sodium butyrate-induced P3HR1 cells assessed as inhibition on EBV lytic replication incubated for 48 hrs by SYBR green dye based real-time PCR method. The note with it: human gammaherpesvirus 4, P3HR-1, 48 h. It is filed as functional, organism-based.

Data set [3] in a line: Cytotoxicity against human P3HR1 cells assessed as reduction in cell viability incubated for 48 hrs by trypan blue dye exclusion assay. It is filed as cell-based, P3HR-1.
Data set [4] is described as follows: Selectivity index, ratio of CC50 for human P3HR1 cells to EC50 for EBV infected in TPA and sodium butyrate-induced P3HR1 cells. On the set-up: species or system P3HR-1.

For orientation: inhibition means the change of the read-out against control, counted positive when it falls. Consider `CC(=O)O[C@H]1[C@H](OC(=O)c2cccnc2)[C@@]2(C)C(C)=CCC[C@@H]2[C@@](C)(/C=C/C2=CC(=O)OC2)[C@@]1(C)O`, for which the inhibition at 20 µM in the data set with Human gammaherpesvirus 4 [1] was less than 50%.

The term EC50 denotes the concentration giving half of the maximal effect. By CC50 is commonly meant the concentration at which the toxic effect on the cells reaches its halfway point. Turning to `CC1=CCC[C@H]2[C@@]1(C)[C@@H](OC(=O)c1ccccc1)[C@H](OC(=O)C(C)C)[C@](C)(O)[C@]2(C)/C=C/C1=CC(=O)OC1`, the concentration for a half-maximal effect (EC50) in the data set with Human gammaherpesvirus 4 [2] was determined as 9.2 µM. Besides, the half-maximal cytotoxic concentration (CC50) at 48 h in data set [3] turned out to be 49.7 µM. The “Ratio CC50/EC50” value in data set [4] is on record as 5.4. In addition, the inhibition at 20 µM in the data set on Human gammaherpesvirus 4 [1] was greater than 50%.

For `CC(=O)OC(C(=O)O[C@H]1[C@H](OC(=O)c2ccccc2)[C@@]2(C)C(C)=CCC[C@@H]2[C@@](C)(/C=C/C2=CC(=O)OC2)[C@@]1(C)O)C(C)C` (some centres not stated), in the data set on Human gammaherpesvirus 4 [2], the EC50 is 3.2 µM. Also, the cytotoxic concentration (CC50) at 48 h in data set [3] is 148 µM. The “Ratio CC50/EC50” value in data set [4] amounted to 46.1. The inhibition at 20 µM in the data set on Human gammaherpesvirus 4 [1] was greater than 50%.

For the compound `CC(=O)O[C@@H](CC1=CC(=O)OC1)[C@]1(C)[C@H]2CCC=C(C)[C@]2(C)[C@@H](OC(=O)c2ccccc2)[C@H](O)[C@]1(C)O`, the 50% effective concentration (EC50) in the data set with Human gammaherpesvirus 4 [2] is 8.7 µM. Further, the cytotoxic concentration (CC50) at 48 h in data set [3] was determined as 37.8 µM. The “Ratio CC50/EC50” value in data set [4] is reported as 4.3. Further, the inhibition at 20 µM in the data set with Human gammaherpesvirus 4 [1] was greater than 50%.

`CC1=CCC[C@H]2[C@@]1(C)[C@@H](OC(=O)c1ccccc1)[C@H](O)[C@]1(C)O[C@]3(COC(=O)C3)C[C@H](OC(=O)c3ccccc3)[C@]21C`: the concentration for a half-maximal effect (EC50) in the data set on Human gammaherpesvirus 4 [2] came to 18.3 µM. The cytotoxic concentration (CC50) at 48 h in data set [3] came to 66.5 µM. Besides, the “Ratio CC50/EC50” value in data set [4] was 3.6. In the data set on Human gammaherpesvirus 4 [1], the inhibition at 20 µM was greater than 50%.

Consider `CC1=CCC[C@H]2[C@@]1(C)[C@@H](OC(=O)c1ccccc1)[C@H](O)[C@]1(C)O[C@]3(COC(=O)[C@@H]3O)C[C@H](OC(=O)c3ccccc3)[C@]21C`, for which the concentration giving a half-maximal response (EC50) in the data set with Human gammaherpesvirus 4 [2] was 5.2 µM. Moreover, the CC50 at 48 h in data set [3] amounted to 15.1 µM. The “Ratio CC50/EC50” value in data set [4] is 2.9. Besides, the inhibition at 20 µM with Human gammaherpesvirus 4 [1] is greater than 50%.

With `CC1=CCC[C@H]2[C@@]1(C)[C@@H](OC(=O)c1ccccc1)[C@H](OC(=O)c1cccnc1)[C@](C)(O)[C@]2(C)/C=C/C1=CC(=O)OC1`, the EC50 with Human gammaherpesvirus 4 [2] was determined as 23.6 µM. Further, in data set [3], the CC50 at 48 h amounted to 1440 µM. Moreover, the “Ratio CC50/EC50” value in data set [4] turned out to be 61.1. Besides, the inhibition at 20 µM in the data set on Human gammaherpesvirus 4 [1] was greater than 50%.

Consider `CC1=CCC[C@H]2[C@@]1(C)[C@@H](OC(=O)c1ccccc1)[C@H](OC(=O)c1ccccc1)[C@](C)(O)[C@]2(C)/C=C/C1=CC(=O)OC1`, for which the EC50 in the data set with Human gammaherpesvirus 4 [2] is 14.3 µM. The CC50 at 48 h in data set [3] was 30 µM. Moreover, the “Ratio CC50/EC50” value in data set [4] was determined as 2.1. In the data set with Human gammaherpesvirus 4 [1], the inhibition at 20 µM is greater than 50%.

Take `CC(=O)OC(C(=O)O[C@H]1[C@H](OC(=O)c2cccnc2)[C@@]2(C)C(C)=CCC[C@@H]2[C@@](C)(/C=C/C2=CC(=O)OC2)[C@@]1(C)O)C(C)C` (some centres not stated): the 50% effective concentration (EC50) in the data set on Human gammaherpesvirus 4 [2] was determined as 18.7 µM. Besides, the CC50 at 48 h in data set [3] turned out to be 307 µM. Further, the “Ratio CC50/EC50” value in data set [4] is on record as 16.4. The inhibition at 20 µM in the data set on Human gammaherpesvirus 4 [1] is greater than 50%.

With `CC1=CCC[C@H]2[C@@]1(C)[C@@H](OC(=O)c1ccccc1)[C@H](O)[C@](C)(O)[C@]2(C)/C=C/C1=CC(=O)OC1`, the 50% effective concentration (EC50) in the data set with Human gammaherpesvirus 4 [2] turned out to be 9.1 µM. For the same compound, the half-maximal cytotoxic concentration (CC50) at 48 h in data set [3] is 68.3 µM. Further, in data set [4], the “Ratio CC50/EC50” value was 7.5. The inhibition at 20 µM in the data set with Human gammaherpesvirus 4 [1] was greater than 50%.

As for `CC(=O)O[C@H]1[C@H](OC(C)=O)[C@]2(C)O[C@]3(CC[C@]2(C)[C@H]2[C@H](OC(=O)c4ccccc4)CC=C(C)[C@]12C)COC(=O)C3`, the concentration for a half-maximal effect (EC50) in the data set with Human gammaherpesvirus 4 [2] was determined as 12.9 µM. Besides, the CC50 at 48 h in data set [3] was 738 µM. For the same compound, the “Ratio CC50/EC50” value in data set [4] is given as 57.2. In the data set on Human gammaherpesvirus 4 [1], the inhibition at 20 µM is greater than 50%.

Consider `CC(=O)O[C@H]1[C@H](OC(=O)c2cccnc2)[C@@]2(C)C(C)=CC[C@@H](OC(=O)c3cccnc3)[C@@H]2[C@@]2(C)CC[C@]3(COC(=O)C3)O[C@@]12C`, for which, in the data set with Human gammaherpesvirus 4 [2], the EC50 is 16.4 µM. Besides, in data set [3], the cytotoxic concentration (CC50) at 48 h was determined as 1790 µM. Further, in data set [4], the “Ratio CC50/EC50” value turned out to be 109.2. The inhibition at 20 µM in the data set on Human gammaherpesvirus 4 [1] is greater than 50%.

`C=CC(C)(C)c1cc2cc3c(cc2oc1=O)O[C@H](C(C)(C)OC(C)=O)C3`: the EC50 with Human gammaherpesvirus 4 [2] was determined as 5.43 µM. Moreover, in data set [3], the half-maximal cytotoxic concentration (CC50) at 48 h was greater than 150 µM. Besides, the “Ratio CC50/EC50” value in data set [4] is given as greater than 39.6.

Take `CC(=O)O[C@H]1[C@H](OC(=O)C(C)C)[C@](C)(O)[C@](C)(/C=C/C2=CC(=O)OC2)[C@H]2CCC=C(C)[C@]12C`: in the data set with Human gammaherpesvirus 4 [1], the inhibition at 20 µM was less than 50%.

Regarding `CC1=CCC[C@H]2[C@@]1(C)[C@@H](OC(=O)c1cccnc1)[C@H](OC(=O)C(C)C)[C@](C)(O)[C@]2(C)/C=C/C1=CC(=O)OC1`, the inhibition at 20 µM in the data set with Human gammaherpesvirus 4 [1] is less than 50%.

For the compound `CC(=O)O[C@H]1[C@H](OC(=O)c2ccccc2)[C@](C)(O)[C@](C)(/C=C/C2=CC(=O)OC2)[C@H]2CCC=C(C)[C@]12C`, the inhibition at 20 µM with Human gammaherpesvirus 4 [1] is less than 50%.

As to `CC(=O)O[C@@H](CC1=CC(=O)OC1)[C@]1(C)[C@H]2CCC=C(C)[C@]2(C)[C@@H](OC(C)=O)[C@H](OC(=O)C(C)C)[C@]1(C)O`, the inhibition at 20 µM in the data set on Human gammaherpesvirus 4 [1] is less than 50%.

Take `CC(=O)O[C@@H](CC1=CC(=O)OC1)[C@]1(C)[C@H]2CCC=C(C)[C@]2(C)[C@@H](OC(=O)c2cccnc2)[C@H](OC(=O)C(C)C)[C@]1(C)O`: in the data set with Human gammaherpesvirus 4 [1], the inhibition at 20 µM is less than 50%.

As to `CC(=O)O[C@@H](CC1=CC(=O)OC1)[C@]1(C)[C@H]2CCC=C(C)[C@]2(C)[C@@H](OC(C)=O)[C@H](OC(C)=O)[C@]1(C)O`, the inhibition at 20 µM in the data set on Human gammaherpesvirus 4 [1] was less than 50%.

On to `CC(=O)O[C@@H](CC1=CC(=O)OC1)[C@]1(C)[C@H]2CCC=C(C)[C@]2(C)[C@@H](OC(=O)c2cccnc2)[C@H](OC(=O)c2cccnc2)[C@]1(C)O`, for which the inhibition at 20 µM with Human gammaherpesvirus 4 [1] is less than 50%.

As to `C=C1[C@@H](O)CC[C@H]2[C@@]1(C)[C@@H](OC(=O)c1ccccc1)[C@H](OC(=O)c1ccccc1)[C@](C)(O)[C@]2(C)/C=C/C1=CC(=O)OC1`, the inhibition at 20 µM in the data set on Human gammaherpesvirus 4 [1] was less than 50%.

Regarding `CC(=O)O[C@H]1[C@H](OC(C)=O)[C@](C)(O)[C@](C)(/C=C/C2=CC(=O)OC2)[C@H]2CCC=C(C)[C@]12C`, in the data set with Human gammaherpesvirus 4 [1], the inhibition at 20 µM was less than 50%.

With `CC1=CCC[C@H]2[C@@]1(C)[C@@H](OC(=O)c1cccnc1)[C@H](OC(=O)c1cccnc1)[C@](C)(O)[C@]2(C)/C=C/C1=CC(=O)OC1`, the inhibition at 20 µM in the data set with Human gammaherpesvirus 4 [1] is less than 50%.

As for `CC(=O)O[C@H]1[C@H](OC(C)=O)[C@]2(C)O[C@]3(CC[C@]2(C)[C@H]2[C@H](OC(=O)c4cccnc4)CC=C(C)[C@]12C)COC(=O)C3`, in the data set on Human gammaherpesvirus 4 [1], the inhibition at 20 µM is less than 50%.

On to `CC(=O)O[C@H]1[C@H](OC(=O)c2cccnc2)[C@@]2(C)C(C)=CCC[C@@H]2[C@@]2(C)[C@@H](OC(=O)c3cccnc3)C[C@@]3(COC(=O)C3)O[C@@]12C`, for which the inhibition at 20 µM with Human gammaherpesvirus 4 [1] was less than 50%.

For `CC1=CCC[C@H]2[C@@]1(C)[C@@H](OC(=O)c1cccnc1)[C@H](OC(=O)c1cccnc1)[C@]1(C)O[C@]3(COC(=O)C3)C[C@H](OC(=O)c3cccnc3)[C@]21C`, the inhibition at 20 µM in the data set with Human gammaherpesvirus 4 [1] was less than 50%.

`CC(=O)O[C@@H](CC1=CC(=O)OC1)[C@]1(C)[C@H]2CCC=C(C)[C@]2(C)[C@@H](OC(=O)c2cccnc2)[C@H](OC(=O)c2ccccc2)[C@]1(C)O` [BARBATELLARINES B]: the inhibition at 20 µM in the data set with Human gammaherpesvirus 4 [1] was less than 50%.
